Experimental data as given in PubChem BioAssay AID1645848.
Converted amounts (≈) assume the structure as drawn.

Conditions: buffer; pH 7.4; 6.0 h; 150.0 µM

SMILES	solubility kinetic
O=C(Nc1nc(-c2ccccc2)cs1)c1ccccc1[N+](=O)[O-]	< 1 µg/mL
Cc1ccccc1CSc1nc2ncc(Br)cc2[nH]1	< 1 µg/mL
O=C(NCCO)c1cccc(-c2cc(Nc3ccc(OC(F)(F)F)cc3)ncn2)c1	8.93 µg/mL (≈ 21.3 µM)
COc1ccc(Cl)cc1NC(=O)c1sc2nc3c(cc2c1N)N1CCC3CC1	< 1 µg/mL
Cc1nn2c(c1-c1ccccc1OCc1ccccc1)N(C(=O)Cc1ccc3c(c1)OCO3)CCC2	< 1 µg/mL
COc1cccc(CNc2ccc(S(=O)(=O)Nc3nccs3)cc2)c1N	> 58 µg/mL
Cc1ccc(-c2cc(C(=O)Nc3ccc(S(=O)(=O)N(C)Cc4nccs4)cc3)c3ccccc3n2)cc1C	3.73 µg/mL (≈ 6.88 µM)
COc1ccc(CNC(=O)Cn2nc3c(cc2=O)CCCC3)cc1	> 48 µg/mL
Nc1nc(N)c2c(OCC3CCN(Cc4ccccc4F)CC3)cccc2n1	> 56 µg/mL
CC(/C=C/C(=O)NO)=C\[C@@H](C)C(=O)c1ccc(N(C)C)cc1	> 45 µg/mL
CCN(CCCOc1ccc2c(Nc3cc(CC(=O)Nc4cccc(F)c4)[nH]n3)ncnc2c1)CCOP(=O)(O)O	> 87 µg/mL
Cc1nc(-c2ccco2)cc([C@H]2CN3CC[C@H]2C[C@@H]3CNC(=O)NC2CCCCC2)n1	> 63 µg/mL
Cc1cnc(-c2ccccc2C(C)C)nc1NCc1ccc(-n2ccnn2)cc1	6.61 µg/mL (≈ 17.2 µM)
CCN(CC)C(=O)c1sc2c(c1C)c(=O)n(Cc1ccccc1)c(=O)n2CC(=O)Nc1ccc(OC)cc1	< 1 µg/mL
C[S+](=O)([O-])c1ccc(-c2nc(C(=O)N3CCOCC3)n3ccncc23)cc1	> 57 µg/mL
COc1cccc(CNc2ccc(S(=O)(=O)Nc3cccc(-c4ccccc4)c3)cc2)c1O	< 1 µg/mL
Brc1ccc(-c2csc(N3CCNCC3)n2)cc1	6.59 µg/mL (≈ 20.3 µM)
Cc1ccc(-n2ncc3c(Nc4cccc(C(=O)O)c4)ncnc32)cc1	> 51 µg/mL
Cc1ccnc(NC(=S)N2CCCC(Nc3cccc(C(F)(F)F)c3)C2)c1 (stereo not given)	11.6 µg/mL (≈ 29.5 µM)
CSc1nc(N)cc(Oc2ccc(-c3nc(Nc4cccc(C(F)(F)F)c4)n[nH]3)cc2)n1	< 1 µg/mL
Cc1cccc2nc(-c3cccnc3)c(Nc3ccc(C(C)C)cc3)n12	< 1 µg/mL
CCC(CC)c1cc([C@H]2CN3CC[C@H]2C[C@@H]3CNC(=O)Cc2cccs2)nc(-c2ccncc2)n1	> 72 µg/mL
COC(=O)[C@H](Cc1ccc(O[S+](=O)([O-])c2cccc3cnccc23)cc1)N[S+](=O)([O-])c1ccc2cnccc2c1	3.21 µg/mL (≈ 5.55 µM)
O=C(Cc1ccc(Cl)c(Cl)c1)Nc1ccc(S(=O)(=O)Nc2nncs2)cc1	> 65 µg/mL

SMILES	solubility kinetic
COc1ccc(C(=O)NC2CCN(c3cnn(CC4CC4)c(=O)c3)CC2)c(OC)n1	> 41 µg/mL
Fc1cc(Nc2nc(-c3ccncc3)nc3ccccc23)ccc1OCC(F)(F)F	< 1 µg/mL
COc1ccc(-c2nc(CS(=O)CC(=O)N3CCC4(CC3)OCCO4)c(C)o2)cc1 (stereo not given)	> 64 µg/mL
COc1cc(OC)c2c(=O)[nH]c(-c3cc(C)c(OCCO)c(C)c3)nc2c1	> 55 µg/mL
Cn1cc(C2=C(c3cn(CCCSC(=N)N)c4ccccc34)C(=O)NC2=O)c2ccccc21	19.2 µg/mL (≈ 41.9 µM)
COc1ccc(Nc2cc(C)nc(-n3nc(C)cc3C)n2)cc1Cl	3.58 µg/mL (≈ 10.4 µM)
CC(=O)c1c(C)[nH]c(C(=O)Nc2cccc([S+](=O)([O-])Nc3ccncc3)c2)c1C	> 61 µg/mL
COc1cccc(CNc2ccc([S+](=O)([O-])Nc3ccccc3)cc2)c1Cl	< 1 µg/mL
COCCNC(=O)c1ccc(-c2ncc3cnc(-c4cccc(F)c4)cn23)cc1	28.1 µg/mL (≈ 71.9 µM)
COc1cc(C2c3c(oc4cc(C)c(C)cc4c3=O)C(=O)N2CCCN2CCOCC2)ccc1O (stereo not given)	> 71 µg/mL
CCOC(=O)c1[nH]c(C)c(CCC(=O)N2CCN(c3cc(Cl)ccc3C)CC2)c1C	2.74 µg/mL (≈ 6.35 µM)
Fc1ccc(Nc2nc(-c3ccnc4ccccc34)nc3ccccc23)cc1F	< 1 µg/mL
COc1cccc(Nc2ncc(-c3cccc(N(C)C)c3)c3c2OCC3)c1	< 1 µg/mL
CC(=O)c1ccc(N2CCN(C(=O)c3ccc4c(c3)CC(=O)N4)CC2)cc1	> 54 µg/mL
COc1cc2nccc(Oc3ccc(NC(=O)C4(C(=O)Nc5ccc(F)cc5)CC4)cc3)c2cc1OC	< 1 µg/mL
CCN1C(=O)c2ccccc2S(=O)c2ccc(C(=O)NCc3ccc(OC)cc3)cc21 (stereo not given)	10.4 µg/mL (≈ 23.9 µM)
CN1Cc2c(ccc3c2OCO3)[C@@H]2[C@H]1c1cc3c(cc1C[C@@H]2O)OCO3	> 52 µg/mL
COc1ccc(-c2nc3ncccc3[nH]2)cc1	> 67 µg/mL
CCOc1cc(=O)n2c(c1C(=O)Nc1cc(OC)c(Cl)cc1OC)CCCC2	> 60 µg/mL
CC(C)c1ccccc1-c1ncc(F)c(NCC2CCN(c3cnccn3)C2)n1 (stereo not given)	32.1 µg/mL (≈ 81.7 µM)
Cc1sc(NC(=O)Cc2ccc3c(c2)OCO3)nc1-c1ccc2c(c1)CCN2C	1.07 µg/mL (≈ 2.63 µM)
COc1ccnc(NC(=S)N2CCN(c3cccc(C(F)(F)F)c3)CC2)c1	13 µg/mL (≈ 32.7 µM)
CCc1ccc2ncc(C(=O)c3ccc(C)c(C)c3)c(N3CCC(C(N)=O)CC3)c2c1	2.27 µg/mL (≈ 5.47 µM)
CC(=O)Nc1ccc(CN2CCc3nc(C(C)C)nc(-c4ccc(Cl)cc4)c3CC2)cc1	33.1 µg/mL (≈ 73.7 µM)

SMILES	solubility kinetic
NC(=O)C1CCN(c2nc(-c3ccc4occc(=O)c4c3)cs2)CC1	> 52 µg/mL
Cc1ccc(N2CCC(CNc3nc(-c4ccccc4C(C)C)ncc3C)CC2)cn1	19.8 µg/mL (≈ 47.7 µM)
Cc1ccc(S(=O)(=O)Nc2ccc(Cl)c(C(=O)Nc3nc(-c4ccccc4)cs3)c2)cc1	< 1 µg/mL
NC(=O)C1CCN(c2nc(-c3ccccc3Br)cs2)CC1	> 54 µg/mL
Cn1ccc2c(C(=O)NCCC(N)=O)nc(-c3cccc(CO)c3)cc21	> 78 µg/mL
O=C(Nc1ncc(Cc2ccc(C(F)(F)F)cc2)s1)c1ccco1	< 1 µg/mL
O=C(Nc1nc2cc(C(F)(F)F)ccc2s1)c1ccc(-c2cccc([N+](=O)[O-])c2)o1	< 1 µg/mL
Fc1cccc(F)c1Nc1nc(-c2ccncc2)nc2ccccc12	< 1 µg/mL
COc1ccc(OC)c(Nc2c3c(nc4ccccc24)CCC3)c1	> 47 µg/mL
N#Cc1ccc(-c2ccc(CNc3ccc(C4CCNCC4)cc3)o2)cc1	35.2 µg/mL (≈ 98.6 µM)
COc1ccc(NC(=O)c2[nH]c(C)c(C(C)=O)c2C)cc1	35.3 µg/mL (≈ 123 µM)
COc1ccc(-n2nc(C3CCCN(C(=O)Cc4ccccn4)C3)[nH]c2=O)cc1 (stereo not given)	> 58 µg/mL
O=C(NCc1ccccc1)c1nc(S(=O)(=O)Cc2ccc(F)cc2)ncc1Cl	< 1 µg/mL
COC(=O)c1sccc1NC(=O)c1sccc1C	< 1 µg/mL
CN1CCN(c2ccc(Nc3nn4c(=O)c5ccccc5nc4s3)cc2)CC1	> 58 µg/mL
COc1ccc(-n2nc(C)c([C@@H]3C=C[C@@H](NCc4cccc(Cl)c4)C3)c2C)cc1	46.2 µg/mL (≈ 113 µM)
Cc1ccccc1-c1nc(NCc2ccc(-c3cccnc3)cc2)c2ccccc2n1	< 1 µg/mL
CCc1ccc(NC(=O)[C@H](Cc2c[nH]c3ccccc23)NC(=O)[C@@H]2Cc3ccccc3CN2)cc1	3.49 µg/mL (≈ 7.48 µM)
CCN(C(=O)C(NS(=O)(=O)c1ccc(Br)s1)c1ccccc1)c1ccc(C)c(C)c1 (stereo not given)	< 1 µg/mL
CNC(=O)C1CCN(c2nc(-c3ccc(Br)cc3)cs2)CC1	3.67 µg/mL (≈ 9.64 µM)
COc1cc2c(cc1Oc1cccc(N(C)C)c1)NC(=O)C21CCN(c2cnccn2)CC1	2.21 µg/mL (≈ 4.97 µM)
CCOC(=O)c1ccc2c(c1)c(C(C)=O)c(C)n2-c1ccc(OC)cc1	< 1 µg/mL
